Measurements as given in patent publication US11931424B2, “Combination MCL-1 inhibitors with anti-body drug conjugates” (Gilead Sciences, Inc., priority 2021, dated 2024).

Tested on: panel of breast cancer cell lines
Assay: Compound A with targeted agents and chemotherapies, 72-hour in vitro proliferation assays
Type: cell-based
Conditions: 72-hour proliferation
[1] = AU565 cell line, compound A × partner
[2] = BT-20 cell line, compound A × partner
[3] = BT-474 cell line, compound A × partner
[4] = BT-549 cell line, compound A × partner
[5] = CAL-51 cell line, compound A × partner
[6] = CAL-85-1 cell line, compound A × partner
[7] = CAL-120 cell line, compound A × partner
[8] = CAL-148 cell line, compound A × partner
[9] = CAMA-1 cell line, compound A × partner
[10] = DU-4475 cell line, compound A × partner
[11] = EVSA-T cell line, compound A × partner
[12] = HCC1143 cell line, compound A × partner
[13] = MCF7 cells, Compound A × partner agent
[14] = MDA-MB-175-VII cells, Compound A × partner agent
[15] = MDA-MB-231 cells, Compound A × partner agent
[16] = MDA-MB-361 cells, Compound A × partner agent
[17] = MDA-MB-436 cells, Compound A × partner agent
[18] = MDA-MB-453 cells, Compound A × partner agent
[19] = MDA-MB-468 cells, Compound A × partner agent
[20] = SK-BR-3 cells, Compound A × partner agent
[21] = SUM159PT cells, combination of compound A with the named agent
[22] = T47D cells, combination of compound A with the named agent
[23] = ZR-75-1 cells, combination of compound A with the named agent
[24] = ZR-75-30 cells, combination of compound A with the named agent

N.N.O=C([O-])C1(C(=O)[O-])CCC1.[Pt+2] [Carboplatin]
Best CI [1]: 1.10
Bliss Volume [1]: 6.93
HSA volume [1]: −0.68
Loewe Volume [1]: −0.04
Synergy Score [1]: 3.68
Best CI [2]: 0.66
Bliss Volume [2]: 7.81
HSA volume [2]: 1.55
Loewe Volume [2]: −0.31
Synergy Score [2]: 5.46
Best CI [3]: 1.30
Bliss Volume [3]: −3.87
HSA volume [3]: −5.02
Loewe Volume [3]: −4.61
Synergy Score [3]: 2.18
Best CI [4]: 1.30
Bliss Volume [4]: 6.55
HSA volume [4]: 4.24
Loewe Volume [4]: 4.88
Synergy Score [4]: 5.26
Best CI [5]: 0.89
Bliss Volume [5]: 2.81
HSA volume [5]: 2.17
Loewe Volume [5]: 2.97
Synergy Score [5]: 5.53
Best CI [6]: 1.11
Bliss Volume [6]: 4.84
HSA volume [6]: 3.68
Loewe Volume [6]: 3.42
Synergy Score [6]: 4.18
Best CI [7]: 0.58
Bliss Volume [7]: −0.19
HSA volume [7]: −1.52
Loewe Volume [7]: −0.25
Synergy Score [7]: 0.49
Best CI [8]: 0.27
Bliss Volume [8]: 11.40
HSA volume [8]: 12.06
Loewe Volume [8]: 11.89
Synergy Score [8]: 24.09
Best CI [9]: 0.46
Bliss Volume [9]: 9.50
HSA volume [9]: 6.02
Loewe Volume [9]: 6.21
Synergy Score [9]: 12.48
Best CI [10]: 0.76
Bliss Volume [10]: 10.04
HSA volume [10]: 7.26
Loewe Volume [10]: 6.59
Synergy Score [10]: 8.88
Best CI [11]: 0.84
Bliss Volume [11]: 9.55
HSA volume [11]: −0.13
Loewe Volume [11]: −0.33
Synergy Score [11]: 4.72
Best CI (HCC38, compound A × partner): 0.63
Best CI Level (HCC38, compound A × partner): 130
Bliss Volume (HCC38, compound A × partner): 5.43
HSA volume (HCC38, compound A × partner): 5.68
Loewe Volume (HCC38, compound A × partner): 3.81
Synergy Score (HCC38, compound A × partner): 9.07
Best CI (HCC70, compound A × partner): 0.31
Best CI Level (HCC70, compound A × partner): 60
Bliss Volume (HCC70, compound A × partner): 12.67
HSA volume (HCC70, compound A × partner): 3.84
Loewe Volume (HCC70, compound A × partner): 3.02
Synergy Score (HCC70, compound A × partner): 7.72
Best CI [12]: 0.82
Bliss Volume [12]: −4.47
HSA volume [12]: −2.24
Loewe Volume [12]: −2.60
Synergy Score [12]: 3.59
Best CI (HCC1569, compound A × partner): 0.43
Best CI Level (HCC1569, compound A × partner): 30
Bliss Volume (HCC1569, compound A × partner): 4.84
HSA volume (HCC1569, compound A × partner): 2.05
Loewe Volume (HCC1569, compound A × partner): 2.91
Synergy Score (HCC1569, compound A × partner): 2.85
Best CI (HCC1806, compound A × partner): 0.33
Best CI Level (HCC1806, compound A × partner): 80
Bliss Volume (HCC1806, compound A × partner): 11.43
HSA volume (HCC1806, compound A × partner): 4.44
Loewe Volume (HCC1806, compound A × partner): 9.76
Synergy Score (HCC1806, compound A × partner): 9.06
Best CI (HCC1937, compound A × partner): 0.44
Best CI Level (HCC1937, compound A × partner): 25
Bliss Volume (HCC1937, compound A × partner): 5.97
HSA volume (HCC1937, compound A × partner): 3.52
Loewe Volume (HCC1937, compound A × partner): 4.56
Synergy Score (HCC1937, compound A × partner): 4.59
Best CI (HCC1954, compound A × partner): 1.07
Best CI Level (HCC1954, compound A × partner): 125
Bliss Volume (HCC1954, compound A × partner): 2.26
HSA volume (HCC1954, compound A × partner): 2.07
Loewe Volume (HCC1954, compound A × partner): 0.71
Synergy Score (HCC1954, compound A × partner): 5.12
Best CI (HCC2218, compound A × partner): 0.70
Best CI Level (HCC2218, compound A × partner): 45
Bliss Volume (HCC2218, compound A × partner): 2.59
HSA volume (HCC2218, compound A × partner): 0.49
Loewe Volume (HCC2218, compound A × partner): −1.33
Synergy Score (HCC2218, compound A × partner): 5.27
Best CI (HDQ-P1, compound A × partner): 0.92
Best CI Level (HDQ-P1, compound A × partner): 35
Bliss Volume (HDQ-P1, compound A × partner): −3.17
HSA volume (HDQ-P1, compound A × partner): −3.06
Loewe Volume (HDQ-P1, compound A × partner): −3.13
Synergy Score (HDQ-P1, compound A × partner): 0.54
Best CI (HMC-1-8, compound A × partner): 0.72
Best CI Level (HMC-1-8, compound A × partner): 155
Bliss Volume (HMC-1-8, compound A × partner): 9.25
HSA volume (HMC-1-8, compound A × partner): 4.09
Loewe Volume (HMC-1-8, compound A × partner): 3.94
Synergy Score (HMC-1-8, compound A × partner): 9.60
Best CI (JIMT-1, compound A × partner): 0.96
Best CI Level (JIMT-1, compound A × partner): 25
Bliss Volume (JIMT-1, compound A × partner): 3.78
HSA volume (JIMT-1, compound A × partner): −0.17
Loewe Volume (JIMT-1, compound A × partner): 1.92
Synergy Score (JIMT-1, compound A × partner): 0.69
Best CI (KPL-1, compound A × partner): 0.89
Best CI Level (KPL-1, compound A × partner): 105
Bliss Volume (KPL-1, compound A × partner): 0.04
HSA volume (KPL-1, compound A × partner): 1.33
Loewe Volume (KPL-1, compound A × partner): 0.65
Synergy Score (KPL-1, compound A × partner): 2.66
Best CI [13]: 0.40
Best CI Level [13]: 75
Bliss Volume [13]: 8.40
HSA volume [13]: 5.66
Loewe Volume [13]: 4.40
Synergy Score [13]: 6.10
Best CI [14]: 0.60
Best CI Level [14]: 80
Bliss Volume [14]: 15.45
HSA volume [14]: 7.97
Loewe Volume [14]: 12.14
Synergy Score [14]: 9.73
Best CI [15]: 0.91
Best CI Level [15]: 50
Bliss Volume [15]: 3.11
HSA volume [15]: 2.11
Loewe Volume [15]: 3.30
Synergy Score [15]: 1.89
Best CI [16]: 0.82
Best CI Level [16]: 135
Bliss Volume [16]: 2.52
HSA volume [16]: 1.01
Loewe Volume [16]: 1.40
Synergy Score [16]: 7.41
Best CI [17]: 1.72
Best CI Level [17]: 135
Bliss Volume [17]: 1.31
HSA volume [17]: 1.06
Loewe Volume [17]: 1.16
Synergy Score [17]: 2.53
Best CI [18]: 1.12
Best CI Level [18]: 150
Bliss Volume [18]: 9.75
HSA volume [18]: 5.44
Loewe Volume [18]: 6.37
Synergy Score [18]: 10.04
Best CI [19]: 0.56
Best CI Level [19]: 135
Bliss Volume [19]: 19.05
HSA volume [19]: 4.48
Loewe Volume [19]: 3.36
Synergy Score [19]: 7.68
Best CI [20]: 0.35
Best CI Level [20]: 160
Bliss Volume [20]: 11.97
HSA volume [20]: 1.74
Loewe Volume [20]: 1.40
Synergy Score [20]: 6.87
Best CI [21]: 0.52
Best CI Level [21]: 20
Bliss Volume [21]: 1.33
HSA volume [21]: −1.99
Loewe Volume [21]: −0.01
Synergy Score [21]: 0.81
Best CI [22]: 1.01
Best CI Level [22]: 30
Bliss Volume [22]: 0.78
HSA volume [22]: −1.67
Loewe Volume [22]: 0.98
Synergy Score [22]: 1.42
Best CI [23]: 0.88
Best CI Level [23]: 100
Bliss Volume [23]: 4.99
HSA volume [23]: 6.14
Loewe Volume [23]: 6.57
Synergy Score [23]: 7.91
Best CI [24]: 0.30
Best CI Level [24]: 100
Bliss Volume [24]: 8.34
HSA volume [24]: 6.81
Loewe Volume [24]: 5.78
Synergy Score [24]: 12.96
